# Data as given in patent publication US11291205B2, “Microbiocidal picolinamide derivatives” (Syngenta Participations AG, priority 2017, dated 2022).
# Assays:
# [1] = test system: Phaeosphaeria nodorum (Septoria nodorum); experiment: Phaeosphaeria nodorum (Septoria nodorum) / wheat / leaf disc preventative (glume blotch); type: in vivo; details: 200 ppm in the formulation; wheat leaf segments cv. Kanzler; compared to untreated control; 5-7 days after application
# Experimental: Phaeosphaeria nodorum (Septoria nodorum)/Wheat/Leaf Disc Preventative (Glume Blotch) Wheat leaf segments cv. Kanzler are placed on agar in a multiwell plate (24-well format) and sprayed with the formulated test compound diluted in water. The leaf disks are inoculated with a spore suspension of the fungus 2 days after application. The inoculated test leaf disks are incubated at 20° C. and 75% rh under a light regime of 12 h light/12 h darkness in a climate cabinet and the activity of a compound is assessed as percent disease control compared to untreated when an appropriate level of disease damage appears in untreated check leaf disks (5-7 days after application).
# [2] = test system: Monographella nivalis (Microdochium nivale); experiment: Monographella nivalis (Microdochium nivale) / liquid culture (foot rot cereals); type: cell-based; details: 96 h, 200 ppm in the formulation, inhibition of growth determined photometrically 4-5 days after application, compared to untreated control, read-out: disease control
# Experimental: (§1) Monographella nivalis (Microdochium nivale)/Liquid Culture (Foot Rot Cereals) Conidia of the fungus from cryogenic storage are directly mixed into nutrient broth (PDB potato dextrose broth). After placing a (DMSO) solution of test compound into a microtiter plate (96-well format), the nutrient broth containing the fungal spores is added. The test plates are incubated at 24° C. and the inhibition of growth is determined photometrically 4-5 days after application.
# [3] = test system: Mycosphaerella arachidis (Cercospora arachidicola); experiment: Mycosphaerella arachidis (Cercospora arachidicola) / liquid culture (early leaf spot); type: cell-based; details: 96 h, 200 ppm in the formulation, inhibition of growth determined photometrically 4-5 days after application, compared to untreated control, read-out: disease control
# Experimental: as §1, with “Mycosphaerella arachidis (Cercospora arachidicola)/Liquid” for “Monographella nivalis (Microdochium nivale)/Liquid”, “(Early Leaf Spot)” for “(Foot Rot Cereals)”
# [4] = test system: Mycosphaerella graminicola (Septoria tritici); experiment: Mycosphaerella graminicola (Septoria tritici) / liquid culture (Septoria blotch); type: cell-based; details: Zymoseptoria tritici, 96 h, 200 ppm in the formulation, inhibition of growth determined photometrically 4 to 5 days after application, compared to untreated control, read-out: disease control
# Experimental: as §1, with “Mycosphaerella graminicola (Septoria tritici)/Liquid” for “Monographella nivalis (Microdochium nivale)/Liquid”, “(Septoria Blotch)” for “(Foot Rot Cereals)”, “4 to 5” for “4-5”
# [5] = test system: Glomerella lagenarium (Colletotrichum lagenarium); experiment: Glomerella lagenarium (Colletotrichum lagenarium) / liquid culture (anthracnose); type: cell-based; details: Colletotrichum orbiculare, 72 h, 200 ppm in the formulation, inhibition of growth measured photometrically 3 to 4 days after application, compared to untreated control, read-out: disease control
# Experimental: as §1, with “Glomerella lagenarium (Colletotrichum lagenarium)/Liquid” for “Monographella nivalis (Microdochium nivale)/Liquid”, “(Anthracnose)” for “(Foot Rot Cereals)”, “measured” for “determined”, “3 to 4” for “4-5”
structure (smiles),measurement,setting,value
"COc1ccnc(C(=O)N[C@@H](C)C(=O)OC2CCC2(c2ccccc2C)c2ccccc2C)c1O (stereo partly drawn) [I.o.02, [2,2-bis(o-tolyl)cyclobutyl] (2S)-2-[(3-hydroxy-4-methoxy-pyridine-2-carbonyl)amino]propanoate]",disease control,[1],at least 80%
same,inhibition of growth at 200 ppm,[2],≥ 80%
same,inhibition of growth at 200 ppm,[3],≥ 80%
same,inhibition of growth at 200 ppm,[4],≥ 80%
same,inhibition of growth at 200 ppm,[5],≥ 80%
